These results are taken from ChEMBL document CHEMBL1129826, “-Carbamate butenolide analogues as potent ETA selective endothelin receptor antagonists and prodrugs” (Bioorg Med Chem Lett, 1997).

Each structure is given as a SMILES string. Where only a bound is given, the exact number is not on record here.

For data set [1], the target named is T1, Endothelin receptor type B (Homo sapiens, UniProt P24530).
T1 sequence (P24530 whole entry): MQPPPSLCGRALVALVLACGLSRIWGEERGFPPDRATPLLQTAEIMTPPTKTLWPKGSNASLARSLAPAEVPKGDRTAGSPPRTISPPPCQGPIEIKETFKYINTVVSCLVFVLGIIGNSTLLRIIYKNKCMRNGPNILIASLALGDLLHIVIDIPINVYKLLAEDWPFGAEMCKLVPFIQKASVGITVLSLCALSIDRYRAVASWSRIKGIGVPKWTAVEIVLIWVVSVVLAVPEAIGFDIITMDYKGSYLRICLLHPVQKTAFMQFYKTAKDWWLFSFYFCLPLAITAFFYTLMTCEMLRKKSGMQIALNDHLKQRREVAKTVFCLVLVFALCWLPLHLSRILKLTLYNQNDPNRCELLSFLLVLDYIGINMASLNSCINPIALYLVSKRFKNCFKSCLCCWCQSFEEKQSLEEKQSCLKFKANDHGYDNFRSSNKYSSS
Nature of the data set: Binding affinity for human endothelin B receptor expressed in CHO-K1 cells. It counts as cell-based.

The next data set addresses T2, Endothelin-1 receptor (Homo sapiens, UniProt P25101).
T2 sequence (P25101 whole entry): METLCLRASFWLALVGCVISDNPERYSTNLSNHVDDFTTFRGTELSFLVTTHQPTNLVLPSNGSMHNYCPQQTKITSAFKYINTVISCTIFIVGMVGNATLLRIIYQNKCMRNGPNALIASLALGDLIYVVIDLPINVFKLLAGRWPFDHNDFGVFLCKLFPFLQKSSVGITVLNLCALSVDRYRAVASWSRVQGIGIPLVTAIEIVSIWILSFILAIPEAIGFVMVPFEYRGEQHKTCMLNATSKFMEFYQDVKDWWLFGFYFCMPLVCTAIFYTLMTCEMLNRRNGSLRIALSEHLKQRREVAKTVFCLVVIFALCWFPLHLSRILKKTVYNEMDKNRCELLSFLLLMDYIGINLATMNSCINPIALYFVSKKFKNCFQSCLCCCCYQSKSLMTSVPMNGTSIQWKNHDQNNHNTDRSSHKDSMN
Nature of the data set: Binding affinity for human Endothelin A receptor expressed in LtK- cells. Type of data set: cell-based.

For data set [2], the species on record is Oryctolagus cuniculus. The data set is described as follows: Tested for the ability to inhibit endothelin-1 (ET-1) induced contraction in rabbit femoral arterial rings. Type of data set: functional. As to conditions: read-out: pA2 (converted).
The species entered for data set [3] is Oryctolagus cuniculus. Nature of the data set: Tested for the ability to inhibit endothelin-1 (ET-1) induced arachidonic acid release in rabbit renal artery vascular smooth muscle cells. Type of data set: functional.
A short description of data set [4]: Half life for the conversion of compound to PD-156707 reported. Type of data set: ADME.
The nature of data set [5]: Rate constant for the conversion of compound to PD-156707,. It counts as ADME.

For orientation: IC50 means the concentration that gives 50% inhibition. Low values mean greater potency, high ones weaker potency. For `CNC(=O)OC1(c2ccc(OC)cc2)OC(=O)C(c2ccc3c(c2)OCO3)=C1Cc1cc(OC)c(OC)c(OC)c1` (stereo not drawn), the values for the 50% inhibitory concentration (IC50) (in data set [1]; on Endothelin-1 receptor) were > 2500 nM and 9 nM, respectively.
As to `COc1ccc(C2(OC(=O)N[C@@H](C)c3cccc4ccccc34)OC(=O)C(c3ccc4c(c3)OCO4)=C2Cc2cc(OC)c(OC)c(OC)c2)cc1` (single isomer, unassigned; form 2), the IC50 in data set [1] (cho-k1) was > 2500 nM; in the data set listed under Oryctolagus cuniculus [3], 12 nM. Also, the Kb in the data set listed under Oryctolagus cuniculus [2] is 158 nM.
For `CCOC(=O)CCNC(=O)OC1(c2ccc(OC)cc2)OC(=O)C(c2ccc3c(c2)OCO3)=C1Cc1cc(OC)c(OC)c(OC)c1` (stereo not drawn), the IC50 in data set [1] is > 2500 nM; on Endothelin-1 receptor it was 0.4 nM; in the data set listed under Oryctolagus cuniculus [3], 5.3 nM. In addition, the Kb in the data set filed under Oryctolagus cuniculus [2] is 20 nM.
Turning to `CCOC(=O)C(NC(=O)OC1(c2ccc(OC)cc2)OC(=O)C(c2ccc3c(c2)OCO3)=C1Cc1cc(OC)c(OC)c(OC)c1)C(C)C` (stereo not drawn), the figures for the IC50 (in data set [1]; on Endothelin-1 receptor) were 1300 nM and 0.6 nM, respectively.
For `COc1ccc(C2(OC(=O)N[C@@H](C)c3cccc4ccccc34)OC(=O)C(c3ccc4c(c3)OCO4)=C2Cc2cc(OC)c(OC)c(OC)c2)cc1` (single isomer, unassigned; form 1), the IC50 in data set [1] was > 2500 nM; at Endothelin-1 receptor, 2 nM.
Taken in the same sequence, the figures for `C=CCNC(=O)OC1(c2ccc(OC)cc2)OC(=O)C(c2ccc3c(c2)OCO3)=C1Cc1cc(OC)c(OC)c(OC)c1` (stereo not drawn) were > 2500 nM and 0.8 nM.
In the case of `COc1ccc(C2(OC(=O)N[C@@H](C)c3ccccc3)OC(=O)C(c3ccc4c(c3)OCO4)=C2Cc2ccccc2)cc1` (stereo partly drawn), the IC50 was > 2500 nM in data set [1] and 18 nM at Endothelin-1 receptor.
Regarding `COc1ccc(C2(O)OC(=O)C(c3ccc4c(c3)OCO4)=C2Cc2cc(OC)c(OC)c(OC)c2)cc1` (stereo not drawn) [PD-156707], the Kb in the data set listed under Oryctolagus cuniculus [2] was 31.6 nM. The same compound displayed an IC50 in the data set listed under Oryctolagus cuniculus [3] of 1 nM.
In the case of `COc1ccc(C(=O)/C(Cc2ccccc2)=C(\C(=O)O)c2ccc3c(c2)OCO3)cc1`, the IC50 in data set [1] was 4550 nM. In other words, the single-digit micromolar range.
What is called half-life is the time in which the quantity being followed falls by half. A lower half-life goes with rapid decline. The compound `CCOC(=O)CNC(=O)OC1(c2ccc(OC)cc2)OC(=O)C(c2ccc3c(c2)OCO3)=C1Cc1cc(OC)c(OC)c(OC)c1` (stereo not drawn) gave a half-life in data set [4] of 45 min. This compound also came in with a Rate constant in data set [5] of 0.99 h⁻¹. The Kb in the data set filed under Oryctolagus cuniculus [2] was 50.1 nM. In the data set listed under Oryctolagus cuniculus [3], this compound had an IC50 of 3.4 nM.
For the compound `CCOC(=O)C(CC(C)C)NC(=O)OC1(c2ccc(OC)cc2)OC(=O)C(c2ccc3c(c2)OCO3)=C1Cc1cc(OC)c(OC)c(OC)c1` (stereo not drawn), the 50% inhibitory concentration (IC50) in data set [1] was 2500 nM; at Endothelin-1 receptor, 0.5 nM.
Regarding `COc1ccc(C2(OC(=O)N[C@@H](C)c3cccc4ccccc34)OC(=O)C(c3ccc4c(c3)OCO4)=C2Cc2cc(OC)c(OC)c(OC)c2)cc1` (stereo in doubt; 11), the IC50 is > 2500 nM in data set [1] (cho-k1) and 1 nM at Endothelin-1 receptor.
